Measurements as given in patent US10231453B2, “5-substituted imidazole derivatives” (BAYER CROPSCIENCE AKTIENGESELLSCHAFT, priority 2015, dated 2019).
Like-named read-outs stand apart in the source and are kept apart here. Marks after values point to notes of the source that are not given here.

Tests used:
[1] = Measurement of LogP values by HPLC on reversed phase columns (EEC directive 79/831 Annex V.A8); assay type: physicochemical; conditions: for chromatographic logP: method [a]: LC-UV, acidic range, 0.1% formic acid in water and acetonitrile as eluent
Method: Measurement of Log P values was performed as outlined above.

Puccinia recondita = experiment: In vivo preventive test on Puccinia recondita (brown rust on wheat), Examples C and R3; conditions: Puccinia recondita, 264 h; 500 ppm of active ingredient; wheat, preventive spray, evaluated 11 days after inoculation; read-out: efficacy
Uromyces appendiculatus = experiment: In vivo preventive test on Uromyces appendiculatus (bean rust), Examples G and R7; conditions: 264 h, 500 ppm of active ingredient, bean, preventive spray, evaluated 11 days after inoculation, read-out: efficacy
Pyrenophora teres = experiment: In vivo preventive test on Pyrenophora teres (net blotch on barley), Examples D, Q2 and R4; conditions: Pyrenophora teres, 336 h; for pest or weed control at 100 ppm: Example R4, rate of application 100 ppm
Septoria tritici = experiment: In vivo preventive test on Septoria tritici (leaf spot on wheat), Examples E, Q3 and R5; conditions: Zymoseptoria tritici, 576 h, 500 ppm of active ingredient; wheat, preventive spray, evaluated 24 days after inoculation; read-out: efficacy
Sphaerotheca fuliginea = experiment: In vivo preventive test on Sphaerotheca fuliginea (powdery mildew on cucurbits), Examples F and R6; conditions: Podosphaera fuliginea, 360 h; 500 ppm of active ingredient; gherkin, preventive spray, evaluated 15 days after inoculation; read-out: efficacy
[2] = 500 ppm of active ingredient, preventive spray, evaluated 14 days after inoculation, read-out: efficacy
[3] = Table 2, compounds of formula (XVII)
[4] = Example R4, rate of application 500 ppm, read-out: Efficacy in %

SMILES | chromatographic logP ([1]; Table 1) | pest or weed control at 500 ppm (Puccinia recondita) [%] | pest or weed control at 500 ppm (Uromyces appendiculatus) [%] | pest or weed control at 500 ppm (Septoria tritici) [%] | pest or weed control at 500 ppm (Sphaerotheca fuliginea) [%] | chromatographic logP [1, 3] | also measured
Cc1cncn1CC(O)(Cc1cccnc1Cl)C1(Cl)CC1 (stereo not drawn) [Example I-10] | 1.22 | 80 to 89 | 90 to 100 |  |  |  | 
O=Cc1cncn1CC(O)(Cc1ccccc1Cl)C1(Cl)CC1 (stereo not drawn) [Example I-12] |  | 80 to 89 | 90 to 100 | 90 to 100 | 90 to 100 |  | pest or weed control at 500 ppm (Pyrenophora teres; [2]): 90 to 100%
N#Cc1cncn1CC(O)(C(F)c1ccccc1Cl)C1(Cl)CC1 (stereo not drawn) [Example I-24] | 2.82 | 80 to 89 | 90 to 100 | 90 to 100 | 90 to 100 |  | 
OC(Cn1cncc1Cl)(C(F)c1ccccc1F)C1(Cl)CC1 (stereo not drawn) [Example I-28] | 2.01 | 80 to 89 | 70 to 79 | 80 to 89 | 90 to 100 |  | 
COc1cncn1CC(O)(Cc1ccccc1F)C1(Cl)CC1 (stereo not drawn) [Example I-35] | 1.67 |  |  | 90 to 100 |  |  | 
OC(Cc1ccccc1F)(Cn1cncc1C1CC1)C1(Cl)CC1 (stereo not drawn) [Example I-37] | 1.86 | 80 to 89 |  | 90 to 100 |  |  | 
N#Cc1cncn1CC(O)(Cc1cc(Br)ncc1Br)C1(Cl)CC1 (stereo not drawn) [Example I-47] | 2.73 | 80 to 89 | 90 to 100 |  | 90 to 100 |  | 
N#Cc1cncn1CC(O)(Cc1ccnc(Br)c1Br)C1(Cl)CC1 (stereo not drawn) [Example I-48] |  | 80 to 89 | 90 to 100 | 90 to 100 | 90 to 100 |  | pest or weed control at 500 ppm (Pyrenophora teres; [2]): 70 to 79%
Cc1ccc(CC(O)(Cn2cncc2C#N)C2(Cl)CC2)c(C)c1 (stereo not drawn) [Example I-51] |  | 90 to 100 | 80 to 89 | 90 to 100 | 90 to 100 |  | pest or weed control at 500 ppm (Pyrenophora teres; [2]): 90 to 100%
N#Cc1cncn1CC(O)(Cc1ccncc1Cl)C1(Cl)CC1 (stereo not drawn) [Example I-57] | 1.88 | 90 to 100 | 90 to 100 | 90 to 100 | 90 to 100 |  | 
N#Cc1cncn1CC(O)(Cc1cc(Cl)cc(Cl)c1)C1(Cl)CC1 (stereo not drawn) [Example I-58] | 3.55 | 80 to 89 | 90 to 100 | 80 to 89 | 90 to 100 |  | 
OC(Cc1ccnc(Cl)c1Cl)(Cn1cncc1Cl)C1(Cl)CC1 (stereo not drawn) [Example I-67] | 2.08 | 80 to 89 | 90 to 100 |  | 90 to 100 |  | 
Cc1ccc(CC(O)(Cn2cncc2Cl)C2(Cl)CC2)c(C)c1 (stereo not drawn) [Example I-68] | 2.69 | 70 to 79 | 90 to 100 |  |  |  | 
OC(Cc1cc(Cl)nc(Cl)c1)(Cn1cncc1Cl)C1(Cl)CC1 (stereo not drawn) [Example I-74] | 2.23 |  | 90 to 100 | 90 to 100 | 90 to 100 |  | 
Nc1cncn1CC(O)(Cc1ccccc1Cl)C1(Cl)CC1 (stereo not drawn) [Example I-78] | 1.5 |  |  | 80 to 89 | 80 to 89 |  | 
OC(Cc1ccccc1C(F)(F)F)(Cn1cncc1Cl)C1(Cl)CC1 (stereo not drawn) [Example I-89] | 2.62 | 80 to 89 | 90 to 100 |  | 90 to 100 |  | pest or weed control at 500 ppm (Pyrenophora teres; [2]): 80 to 89%
N#Cc1cncn1CC(O)(Cc1ccc(F)c(F)c1F)C1CCC1 (stereo not drawn) [Example I-104] | 2.78 | 90 to 100 | 90 to 100 | 90 to 100 | 90 to 100 |  | 
CC(C)C(O)(Cc1ccc(F)c(F)c1F)Cn1cncc1C#N (stereo not drawn) [Example I-105] | 2.78 | 70 to 79 |  | 70 to 79 | 90 to 100 |  | 
N#Cc1cncn1CC(O)(Cc1ccc(F)c(F)c1F)CC1CC1 (stereo not drawn) [Example I-106] | 2.73 | 80 to 89 | 90 to 100 | 90 to 100 | 90 to 100 |  | 
NC(=O)c1cncn1CC(O)(Cc1ccc(Cl)cc1F)C1CC1 (stereo not drawn) [Example I-116] | 1.49 |  |  | 90 to 100 | 90 to 100 |  | 
N#Cc1cncn1CC(O)(Cc1ccc(Cl)cc1F)C1CCC1 (stereo not drawn) [Example I-117] | 3.31 | 90 to 100 | 90 to 100 | 90 to 100 | 90 to 100 |  | 
N#Cc1cncn1CC(O)(Cc1ccc(Cl)cc1F)CC1CC1 (stereo not drawn) [Example I-120] |  | 90 to 100 | 90 to 100 | 70 to 79 | 90 to 100 |  | pest or weed control at 500 ppm (Pyrenophora teres; [2]): 70 to 79%
CCOC(Cc1ccc(Cl)cc1F)(Cn1cncc1Cl)C1(Cl)CC1 (stereo not drawn) [Example I-122] | 3.1 | 80 to 89 | 90 to 100 | 90 to 100 | 90 to 100 |  | 
C=CCOC(Cc1ccc(Cl)cc1F)(Cn1cncc1Cl)C1(Cl)CC1 (stereo not drawn) [Example I-123] | 3.31 | 80 to 89 | 80 to 89 | 90 to 100 | 90 to 100 |  | 
N#Cc1cncn1CC(O)(Cc1ccccc1F)CC1CC1 (stereo not drawn) [Example I-141] | 2.45 | 90 to 100 | 90 to 100 | 90 to 100 | 90 to 100 |  | 
Cc1cccc(CC(O)(Cn2cncc2Cl)C2(Cl)CC2)c1F (stereo not drawn) [Example I-143] | 2.35 | 90 to 100 |  | 90 to 100 | 90 to 100 |  | pest or weed control at 500 ppm (Pyrenophora teres; [2]): 70 to 79%

SMILES | chromatographic logP ([1]; Table 1) | pest or weed control at 500 ppm (Puccinia recondita) [%] | pest or weed control at 500 ppm (Uromyces appendiculatus) [%] | pest or weed control at 500 ppm (Septoria tritici) [%] | pest or weed control at 500 ppm (Sphaerotheca fuliginea) [%] | chromatographic logP [1, 3] | also measured
N#Cc1cncn1CC(O)(Cc1cccc(F)c1F)C1CCC1 (stereo not drawn) [Example I-148] | 2.57 | 90 to 100 | 90 to 100 | 90 to 100 |  |  | pest or weed control at 500 ppm (Pyrenophora teres; [2]): 80 to 89%
O=C(Cc1ccccc1)c1cncn1CC(O)(Cc1ccccc1)C1(Cl)CC1 (stereo not drawn) [Example I-169] | 3.56 | 70 to 79 | 70 to 79 | 70 to 79 | 90 to 100 |  | 
N#Cc1cncn1CC(=O)C1(Cl)CC1 [XVII-2, 1-[2-(1-chlorocyclopropyl)-2-oxoethyl]-1H-imidazole-5-carbonitrile] |  |  |  |  |  | 1.35 | 
N#Cc1cncn1CC(=O)C1CC1 [XVII-3] |  |  |  |  |  | 0.74 | 
N#Cc1cncn1CC(=O)C1(F)CC1 [XVII-4] |  |  |  |  |  | 1.05 | 
O=C(Cn1cncc1F)C1(Cl)CC1 [XVII-5] |  |  |  |  |  | 0.32 | 
COC(=O)c1cncn1CC(=O)C1(Cl)CC1 [XVII-6] |  |  |  |  |  | 1.2 | 
CC(C)(C)C(=O)Cn1cncc1C#N [XVII-7] |  |  |  |  |  | 1.47 | 
CC(C)(Cl)C(=O)Cn1cncc1C#N [XVII-8] |  |  |  |  |  |  | LogP [1]: 1.65^[a]
N#Cc1cncn1CC(=O)C1(C#N)CC1 [XVII-9] |  |  |  |  |  | 0.9 | 
O=C(Cn1cncc1I)C1(Cl)CC1 [XVII-10] |  |  |  |  |  | 0.7 | 
CC(C)(F)C(=O)Cn1cncc1C#N [XVII-11] |  |  |  |  |  | 1.31 | 
N#Cc1cncn1CC(=O)CC1CC1 [XVII-12] |  |  |  |  |  | 1.27 | 
CC(C)(C)CC(=O)Cn1cncc1C#N [XVII-13] |  |  |  |  |  | 1.88 | 
CC(C)C(=O)Cn1cncc1C#N [XVII-14] |  |  |  |  |  | 1.14 | 
N#Cc1cncn1CC(=O)C1CCCC1 [XVII-15] |  |  |  |  |  | 1.57 | 
N#Cc1cncn1CC(=O)C1(F)CCCC1 [XVII-16] |  |  |  |  |  | 1.81 | 
N#Cc1cncn1CC(=O)C1CCC1 [XVII-17] |  |  |  |  |  | 1.26 | 
N#Cc1cncn1CC(=O)C1(Cl)CCC1 [XVII-18] |  |  |  |  |  | 1.86 | 
CCCCC(=O)Cn1cncc1C#N [XVII-19] |  |  |  |  |  | 1.6 | 
OC(Cc1ccccc1Cl)(Cn1cnc(Br)c1)C1(Cl)CC1 (stereo not drawn) [drawing 106, reference compound] |  |  |  |  |  |  | pest or weed control at 100 ppm (Pyrenophora teres; read-out: Efficacy in %): 0%; pest or weed control at 500 ppm (Pyrenophora teres; [4]): 0%
N#Cc1cn(CC(O)(Cc2ccccc2Cl)C2(Cl)CC2)cn1 (stereo not drawn) [drawing 108, reference compound] |  |  |  |  |  |  | pest or weed control at 100 ppm (Pyrenophora teres; read-out: Efficacy in %): 0%; pest or weed control at 500 ppm (Pyrenophora teres; [4]): 0%
C#Cc1cn(CC(O)(Cc2ccccc2F)C2(Cl)CC2)cn1 (stereo not drawn) [drawing 110, reference compound] |  |  |  |  |  |  | pest or weed control at 100 ppm (Pyrenophora teres; read-out: Efficacy in %): 0%; pest or weed control at 500 ppm (Pyrenophora teres; [4]): 0%
OC(Cc1ccccc1F)(Cn1cnc(Cl)c1)C1(Cl)CC1 (stereo not drawn) [drawing 112, reference compound] |  |  |  |  |  |  | pest or weed control at 100 ppm (Pyrenophora teres; read-out: Efficacy in %): 0%; pest or weed control at 500 ppm (Pyrenophora teres; [4]): 0%
OC(Cc1ccccc1F)(Cn1ccnc1Cl)C1(Cl)CC1 (stereo not drawn) [drawing 113, reference compound] |  |  |  |  |  |  | pest or weed control at 100 ppm (Pyrenophora teres; read-out: Efficacy in %): 0%; pest or weed control at 500 ppm (Pyrenophora teres; [4]): 0%
N#Cc1cn(CC(O)(Cc2ccccc2F)C2(Cl)CC2)cn1 (stereo not drawn) [drawing 121, reference compound] |  |  |  |  |  |  | pest or weed control at 100 ppm (Pyrenophora teres; read-out: Efficacy in %): 0%; pest or weed control at 500 ppm (Pyrenophora teres; [4]): 0%
